Laboratory results reported in patent publication US20250144179A1, “PEPTIDE HORMONE TO PREVENT OR TREAT VASOSPASM, BRAIN INJURY OR CEREBRAL EDEMA” (UNIVERSITY OF FLORIDA RESEARCH FOUNDATION, INCORPORATED, priority 2022, published 2025).
“Also recorded” adds a separate entry of the source.

Experiments:
Format in all cases: in vivo, mouse
[1] = test system: ZO-1; test: Western blot of ZO-1 in brain after SAH; conditions: wild-type mice, adropin 450 nmol/kg i.p. vs vehicle
Method: (§1) Synthetic adropin^34-76 peptide was supplied from Bachem (Bubendorf, Switzerland) and diluted in 0.1% BSA in saline. 0.1% BSA in saline was used as vehicle control for all experiments. Adropin (450 nmol/kg) or an equivalent volume of vehicle was delivered via intraperitoneal injection 15 minutes post-SAH. For experiments ending at 24 hours post-SAH, an identical dose of adropin/vehicle was given again 12 hours later. For experiments ending 7 days post-SAH, adropin/vehicle was given again on days 1, 3 & 5 post-SAH. In the aneurysm rupture model, adropin was given at a dose of 450 nmol/kg starting 3 days before aneurysm induction (elastase injection). Adropin was given every other day until sacrifice
SAH was modeled using the anterior circulation single autologous blood injection method^25,33 with minor adjustments. Mice were anesthetized with ketamine (100 mg/kg) and xylazine (10 mg/kg) before removing hair from scalp and cleaning with serial betadine—saline washes. The tail was also prepped from the base extending 1 cm distally. Mice were then fixed into a stereotaxic frame and body temperature maintained at 37° C. The scalp was incised along the sagittal suture from bregma to the nasal bone. […]
At 24 hours or 7 days post-SAH, mice were deeply anesthetized and perfused with 10 mL of ice-cold PBS. […] Samples were centrifuged, supernatant collected, and protein quantified via Bradford assay. […]

[2] = test system: wild-type mice, SAH model; test: Fibrinogen immunostaining for microthrombi after SAH; conditions: 24 hours post-SAH, adropin 450 nmol/kg i.p.
Method: as §1
SAH was modeled using the anterior circulation single autologous blood injection method^25,33 with minor adjustments. […]
Following perfusion-fixation and overnight post-fixation in 4% PFA, brain samples were embedded in paraffin wax and cut into […] sections with a Leica RM2125 RTS microtome (Leica Microsystems, Buffalo Grove, New York) and adhered to poly-L-lysine-coated glass slides. […] Primary antibodies were detected using donkey anti-rabbit IgG AlexaFluor594, donkey anti-rabbit IgG AlexaFluor488, donkey anti-rat IgG AlexaFluor594, or donkey anti-goat IgG AlexaFluor488 (all from ThermoFisher, Waltham, Massachusetts). […] All images were analyzed by two blinded observers.

[3] = Mean arterial pressure in the aneurysm rupture model; conditions: before and after aneurysm induction, adropin vs vehicle
Method: as §1
Cerebral aneurysms were induced as previously described. Briefly, mice were anesthetized with ketamine (100 mg/kg) and xylazine (10 mg/kg) before the left common carotid artery and the right renal artery were ligated with 7-0 silk suture (Ethicon Inc., Somerville, New Jersey). Carotid and renal artery ligations are hereafter referred to as ligations. […]

For “adropin (CHSRSADVDSLSESSPNSSPGPCPEKAPPPQKPSHEGSYLLQP) [Synthetic adropin^34-76 peptide from Bachem]”, the “ZO-1 expression (immunoblot)” value [1] was “preserved the expression of occludin and ZO-1”, the “number of microthrombi (fibrinogen immunostaining)” value [2] was “adropin treatment completely abolished this effect” and the “systemic blood pressure / mean arterial pressure (MAP)” value [3] was “No difference was found in blood pressure; also recorded: no effect on MAP before or after aneurysm induction”.
